Data set [1] is described as follows: In vitro photothermal heating with 808 nm and 852 nm lasers. Conditions: 808 nm laser. The text has this:
To assess the heating capacity of IcG and L-JA solutions, two different laser setups were utilized. All laser components including diodes, mounts, fiber optic cables, lens, and adapters were acquired from ThorLabs (Thorlabs Inc., Newton, NJ, USA) Two different laser diodes, one 808 nm the other 852 nm, were mounted, aligned, and focused in view of a high-resolution IR camera and tracked using accompanying software (Teledyne FLIR, Wilsonville, OR, USA). The 852 nm laser system included an optical isolator (ThorLabs) in the light path as recommended by the manufacturer, but otherwise the systems were identical. Laser power was calibrated to 1 W/cm^2 for both lasers and across all experiments. All experiments were conducted in 24- or 96-well plates filled with corresponding contrast agent solutions placed at the focus of the laser and IR camera.

In data set [2] the test system is mouse kidney and surrounding tissue. Nature of the data set: In vivo contrast enhancement and circulation by photoacoustic imaging. Also on record: species or system mice. Conditions: systemic administration. The text has this: Particle circulation was monitored by imaging the mouse kidney and surrounding tissue. The kidney is a high blood flow organ that has the distinct advantage of being easily and rapidly identifiable using ultrasound imaging. Simple setup and identification decreases the amount of time animals are under anesthesia and limits any potential artificial lowering of SO2 due to prolonged exposure to anesthetic agents. Once prepped, mice placed in the imaging system were imaged with power-doppler to confirm blood flow and baseline values for SO2 and contrast agent signals (FIG. 13). Following a bolus injection of a 5 mg/kg dose of contrast agent via the tail vein, the same region was monitored at varying time points. After processing with FUJIFILM VisualSonics' proprietary spectral unmixing software the images were analyzed using in-house MATLAB software. Power-doppler images guide the placement of ROIs around areas of high blood flow allowing isolation and calculation of SO2 and contrast agent signal over the course of imaging.
To assess their performance in vivo, particles were injected intravenously via the tail vein. Particle circulation was monitored by imaging the mouse kidney and surrounding tissue. […] Following a bolus injection of contrast agent via the tail vein, the same region was monitored at multiple time points. […]

Data set [3] in a line: Photostability during pulsed-laser photoacoustic imaging. In kind it is physicochemical. Here is the method: All photoacoustic imaging was performed using the VEVO LAZR-X and F2 Systems (FUJIFILM VisualSonics, Toronto, Canada). The system was calibrated per manufacturer instructions prior to all experiments. Equal concentrations of IcG, IcG-JA, and L-JA were loaded into the plastic tubes before coupling the imaging phantom to the transducer with ultrasound gel. For base characterization, a full spectral scan from 680 nm to 970 nm was performed. Photostability measurements were obtained by imaging at either 800 nm or 890 nm for 30 minutes. At five-minute intervals, which equated to nearly every 1400 pulses (˜280 pulses per minute), the scan was paused to allow for a full spectral scan to be performed. RAW data files from the system were exported and were analyzed using custom software written in MATLAB.

For the next data set, the system named is HUVECs. Nature of the data set: MTS cytotoxicity assay. In kind it is cell-based. Conditions: 24 hr incubation, p<0.05. Here is the method: The cytotoxicity of L-JA, IcG-JA, and IcG was evaluated on HUVECs and HEK-293T cell lines. The HUVECs were cultured in MCDB-131 medium supplemented with 10% (v/v) fetal bovine serum, 1% L-glutamine, 1% penicillin-streptomycin, and 1% endothelial cell growth supplement. The HEK-293T cells were cultured in Dulbecco's modified Eagle medium (DMEM) supplemented with 10% (v/v) fetal bovine serum and 1% penicillin-streptomycin. Both cell lines were incubated at 37° C. with 5% CO2 in a humidified atmosphere. The HUVEC and HEK-293T cells were seeded at the density of 10,000 cells per well and 5,000 cells per well in 96 well plates. After 24 hours, the culture media was replaced with fresh media containing L-JA, IcG-JA, and IcG at the concentration of 0.25 mM, 0.2 mM, 0.1 mM, and 0.05 mM. Cells incubated without particles were used as a control group. After 24 hours, the culture media was replaced with […] of fresh media. 20 μl of a mixture of [3-(4,5-dimethylthiazol-2-yl)-5-(3-carboxymethoxyphenyl)-2-(4-sulfophenyl)-2H-tetrazolium] (MTS) and phenazine ethosulfate (PES) was then added to each well. The cells were further incubated for 4 hours at 37° C. The absorbance signal at 490 nm was measured using a BioTek plate reader.
(Tetrazolium dyes change colour on reduction, which living cells bring about.)

These results are taken from patent publication US20240382626A1, “IRRADIATION AMENABLE LIPOSOMAL DYE AGGREGATES AND METHODS OF SYNTHESIS AND USE THEREOF” (Board of Regents, The University of Texas System, priority 2023, published 2024).

“Also recorded” adds a separate entry of the source.

For `CC1(C)C(/C=C/C=C/C=C/C=C2\N(CCCCS(=O)(=O)O)c3ccc4ccccc4c3C2(C)C)=[N+](CCCCS(=O)(=O)[O-])c2ccc3ccccc3c21` [IcG, Indocyanine Green], the “behaviour on repeated (cyclic) laser heating (in words)” value in data set [1] was “can only be heated once”. The “clearance / circulation (in words)” value in data set [2] is given as “cleared from circulation within an hour; also recorded: fully cleared over the course of a few minutes”. The “time until PA signal fully quenches” value in data set [3] (800 nm laser pulses) was determined as 25 min. For the same compound, the photoacoustic signal drop entry in data set [3] (800 nm laser pulses, just under 5 pulses per second, after just over 5 minutes / between 5 and 10 minutes) is reported as “more than 50%”. Moreover, the “photodegradation (in words)” value in data set [3] (30 minutes of imaging at 800 nm) is listed as “completely photodegraded”. Also, the “concentration at which significant cytotoxicity relative to control occurs” value with HUVECs was 200 µM.
